Measured values taken from patent US20240043880A1, “IMPROVED METHODS FOR PRODUCTION, RECOVERY AND SECRETION OF HYDROPHOBIC COMPOUNDS IN A FERMENTATION” (BioPhero ApS, priority 2019, published 2024).

Tests used:
[1] = test system: Y. lipolytica strain ST8881; type: cell-based, Yarrowia lipolytica; details: antifoaming agent 3 v/v %
Text: Strain ST8327 has been engineered to produce (Z)11-hexadecen-1-ol. […] The strain expresses the Δ11 desaturase from Amyelois transitella (SEQ ID NO: 1) and fatty acyl-CoA reductase from Helicoverpa armigera (SEQ ID NO: 5). Strain ST8762 has been engineered to produce (Z)9-tetradecen-1-ol. The strain expresses the Δ9 desaturase from Drosophila melanogaster (SEQ ID NO: 16) and fatty acyl-CoA reductase from Helicoverpa armigera (SEQ ID NO: 5). […] A strain was inoculated from a YPD agar plate (10 g/L yeast extract, 10 g/L peptone, 20 g/L glucose, 15 g/L agar agar) to an initial OD600 of 0.1-0.2 into 2.5 mL YPG medium (10 g/L yeast extract, 10 g/L peptone, 40 g/L glycerol) in 24 well-plate (EnzyScreen). The plate was incubated at 28° C. and 300 rpm for 22 hours. […] At the same time, 95 μL of Antifoam A (ethoxylated and propoxylated C16-18 alcohols, CAS No. 68002-96-0), corresponding to […] (i.e. above the recommended dose of 0.1 v/v % for foam management and above the cloud concentration), was added. The plate was incubated at 28° C. and 300 rpm for 28 hours. Each experiment was performed in biological triplicates.
The intracellular and extracellular concentrations of fatty alcohols were assessed as follows. 1000 μL of culture broth was transferred to a 4 mL gas-tight glass extraction vial. The sample was centrifuged at 3,500 g for 5 min at room temperature. The supernatant was transferred into a new glass vial with 990 μL of hexane and 10 μL of internal standard (IS) solution (20 mg/L of methyl Z10-heptadecanoate in ethyl acetate). The vial was vortexed for 10 s and centrifuged as before. 250 μL of the upper hexane phase was transferred to a GC vial for GC-MS analysis of the extracellular fatty alcohol concentration. The pellet remaining after the removal of the supernatant from the centrifuged culture broth was resuspended in 990 μL of solvent mixture (EtOAc and EtOH) and 10 μL of IS solution as above. The sample was incubated for 1 h with periodic mixing. 300 μL water was added and the vials were centrifuged at 3,500 g for 5 min at room temperature. 250 μL of the upper organic phase was transferred to a GC vial for GC-MS analysis of the intracellular fatty alcohols. GC-MS analyses were performed on an Agilent 7820A GC coupled to a mass selective detector Agilent 5977B. The GC was equipped with an DB Fatwax column (30 m×0.25 mm×0.25 μm), and helium was used as carrier gas. The MS was operated in electron impact mode (70 eV), scanning between m/z 30 and 400, and the injector was configured in split mode 20:1 at 220° C. Oven temperature was set to 80° C. for 1 min, then increased at a rate of 20° C./min to 210° C., followed by a hold at 210° C. for 7 min, and then increased at a rate of 20° C./min to 230° C. Compounds were identified by comparison of retention times and mass spectra of the reference compounds. Compounds were quantified by the ion 55.1 m/z. Data were analysed by the Agilent Masshunter software. The concentrations of fatty alcohols were calculated based on standard calibration curves prepared with reference standards.
Here we investigated the effect of different antifoaming oils and agents on the recovery of fatty alcohols in a separate phase. The experiments were performed with engineered Y. lipolytica strain ST8881 following the procedures as in Example 1.
The control experiment was performed without addition of any antifoaming oil or agent.

Helicoverpa armigera = details: H. armigera, cited from earlier work
Chilo suppressalis = details: C. suppressalis, cited from earlier work

SMILES	% secretion of Z11.hexadecen-1-ol [1]	Extracellular concentration of Z11.hexadecen-1-ol [1]	Total concentration of Z11-hexadecen-1-ol [1] [mg/L]	Effect on the activity of an artificial pheromone formulation when added to Z11-16:Ald (Helicoverpa armigera; Kehat et al., 1990)	Interaction with the two primary pheromone components Z11-16:Ald and Z13-18:Ald (Chilo suppressalis; Tatsuki et al.)	Behavioral response (Helicoverpa armigera)	Behavioral response (Chilo suppressalis)
CCCCCCCCCCCC [Dodecane]	0 (0%)	0 (0%)	720.0 ± 95.6				
CCCCCC/C=C\CCCCCCCC=O [Z9-16:Ald]				enhance the activity	synergistic		
CCCCCCCC/C=C\CCCCCCCC(=O)O [Oleic acid]	0 (0%)	0 (0%)	1008.4 ± 648.6				
CCCCCCCCCCCCCCCC=O [16:Ald, n-Hexadecanal]						neutral	does not elicit a behavioral response
